In PubChem BioAssay AID270 (DTP/NCI, 2004):
Values joined by “and” are separate entries in the source; they are usually repeats but may differ in a detail not shown here. Equal entries are not always repeated. Results filed as inconclusive are left out.

Test system: BDF1 mice, s.c. Lewis lung carcinoma, T/C %
Test: NCI In Vivo Anticancer Drug Screen. Data for tumor model Lewis Lung Carcinoma (subcutaneous) in B6D2F1 (BDF1) mice
In short: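 Tumor-bearing mice were treated with test compound, and either survival or tumor size was recorded. Values are the treated-group measurement divided by that of the vehicle-treated control group.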

## Cc1ccccn1
endpoint: mean tumor weight, dose: 62.5 mg/kg/injection, schedule: Q01DX011 (ip), vehicle: carboxymethylcellulose (CMC), higher = larger tumour
  T/C: 93 % of control
endpoint: mean tumor weight, dose: 125.0 mg/kg/injection, schedule: Q01DX011 (ip), vehicle: carboxymethylcellulose (CMC), higher = larger tumour
  T/C: 112 % of control
endpoint: mean tumor weight, dose: 250.0 mg/kg/injection, schedule: Q01DX011 (ip), vehicle: carboxymethylcellulose (CMC), higher = larger tumour
  T/C: 94 % of control

## CCCCCCCCCCCCSC(=N)N
endpoint: median survival time, dose: 6.25 mg/kg/injection, schedule: Q01DX009 (ip), vehicle: saline with Tween-80, higher = longer survival
  T/C: 107 % of control
endpoint: median survival time, dose: 12.5 mg/kg/injection, schedule: Q01DX009 (ip), vehicle: saline with Tween-80, higher = longer survival
  T/C: 106 % of control
endpoint: median survival time, dose: 25.0 mg/kg/injection, schedule: Q01DX009 (ip), vehicle: saline with Tween-80, higher = longer survival
  T/C: 104 % of control

## O=c1[nH]c(=O)c2[nH]cnc2[nH]1
endpoint: mean tumor weight, dose: 12.5 mg/kg/injection, schedule: Q01DX011 (ip), vehicle: saline, higher = larger tumour
  T/C: 97 % of control
endpoint: mean tumor weight, dose: 25.0 mg/kg/injection, schedule: Q01DX011 (ip), vehicle: saline, higher = larger tumour
  T/C: 73 % of control
endpoint: mean tumor weight, dose: 50.0 mg/kg/injection, schedule: Q01DX011 (ip), vehicle: saline, higher = larger tumour
  T/C: 75 % of control and 76 % of control
endpoint: mean tumor weight, dose: 100.0 mg/kg/injection, schedule: Q01DX011 (ip), vehicle: saline, higher = larger tumour
  T/C: 118 % of control
endpoint: mean tumor weight, dose: 200.0 mg/kg/injection, schedule: Q01DX011 (ip), vehicle: saline, higher = larger tumour
  T/C: 109 % of control

## O=c1[nH]cc(F)c(=O)[nH]1
endpoint: mean tumor weight, dose: 5.0 mg/kg/injection, schedule: Q01DX011 (ip), vehicle: saline, higher = larger tumour
  T/C: 54 % of control
endpoint: mean tumor weight, dose: 10.0 mg/kg/injection, schedule: Q01DX011 (ip), vehicle: saline, higher = larger tumour
  T/C: 68 % of control
endpoint: mean tumor weight, dose: 13.5 mg/kg/injection, schedule: Q01DX011 (ip), vehicle: water, higher = larger tumour
  T/C: 51 % of control
endpoint: mean tumor weight, dose: 20.0 mg/kg/injection, schedule: Q01DX011 (ip), vehicle: saline, higher = larger tumour
  T/C: 35 % of control
endpoint: mean tumor weight, dose: 27.0 mg/kg/injection, schedule: Q01DX011 (ip), vehicle: water, higher = larger tumour
  T/C: 6 % of control
endpoint: median survival time, dose: 5.0 mg/kg/injection, schedule: Q01DX009 (ip), vehicle: Klucel (hydroxypropylcellulose) (HPC), higher = longer survival
  T/C: 86 % of control
endpoint: median survival time, dose: 5.0 mg/kg/injection, schedule: Q01DX009 (ip), vehicle: saline with Tween-80, higher = longer survival
  T/C: 97 % of control
endpoint: median survival time, dose: 5.0 mg/kg/injection, schedule: Q01DX009 (ip), vehicle: saline, higher = longer survival
  T/C: 108 % of control
endpoint: median survival time, dose: 10.0 mg/kg/injection, schedule: Q01DX009 (ip), vehicle: Klucel (hydroxypropylcellulose) (HPC), higher = longer survival
  T/C: 97 % of control and 98 % of control
endpoint: median survival time, dose: 10.0 mg/kg/injection, schedule: Q01DX009 (ip), vehicle: saline with Tween-80, higher = longer survival
  T/C: 86 % of control
endpoint: median survival time, dose: 10.0 mg/kg/injection, schedule: Q01DX009 (ip), vehicle: saline, higher = longer survival
  T/C: 118 % of control
endpoint: median survival time, dose: 16.2 mg/kg/injection, schedule: Q04DX002 (ip), vehicle: saline, higher = longer survival
  T/C: 97 % of control and 102 % of control
endpoint: median survival time, dose: 20.0 mg/kg/injection, schedule: Q01DX009 (ip), vehicle: Klucel (hydroxypropylcellulose) (HPC), higher = longer survival
  T/C: 111 % of control
endpoint: median survival time, dose: 20.0 mg/kg/injection, schedule: Q01DX009 (ip), vehicle: saline with Tween-80, higher = longer survival
  T/C: 97 % of control and 112 % of control
endpoint: median survival time, dose: 21.6 mg/kg/injection, schedule: Q04DX004 (ip), vehicle: saline, higher = longer survival
  T/C: 124 % of control
endpoint: median survival time, dose: 23.3 mg/kg/injection, schedule: Q04DX003 (iv), vehicle: alkali diluted with saline, higher = longer survival
  T/C: 157 % of control
endpoint: median survival time, dose: 27.0 mg/kg/injection, schedule: Q04DX002 (ip), vehicle: saline, higher = longer survival
  T/C: 100 % of control and 102 % of control
endpoint: median survival time, dose: 36.0 mg/kg/injection, schedule: Q04DX004 (ip), vehicle: saline, higher = longer survival
  T/C: 115 % of control
endpoint: median survival time, dose: 40.0 mg/kg/injection, schedule: Q01DX009 (ip), vehicle: Klucel (hydroxypropylcellulose) (HPC), higher = longer survival
  T/C: 86 % of control
endpoint: median survival time, dose: 40.4 mg/kg/injection, schedule: Q04DX003 (iv), vehicle: alkali diluted with saline, higher = longer survival
  T/C: 201 % of control
endpoint: median survival time, dose: 45.0 mg/kg/injection, schedule: Q04DX002 (ip), vehicle: saline, higher = longer survival
  T/C: 96 % of control and 97 % of control
endpoint: median survival time, dose: 70.0 mg/kg/injection, schedule: Q04DX003 (iv), vehicle: alkali diluted with saline, higher = longer survival
  T/C: 98 % of control
endpoint: median survival time, dose: 75.0 mg/kg/injection, schedule: Q04DX002 (ip), vehicle: saline, higher = longer survival
  T/C: 105 % of control
endpoint: median survival time, dose: 100.0 mg/kg/injection, schedule: Q04DX004 (ip), vehicle: saline, higher = longer survival
  T/C: 64 % of control
endpoint: median survival time, dose: 121.0 mg/kg/injection, schedule: Q04DX003 (iv), vehicle: alkali diluted with saline, higher = longer survival
  T/C: 95 % of control
endpoint: median survival time, dose: 125.0 mg/kg/injection, schedule: Q04DX002 (ip), vehicle: saline, higher = longer survival
  T/C: 109 % of control
endpoint: median tumor weight (est.), dose: 5.0 mg/kg/injection, schedule: Q01DX009 (ip), vehicle: Klucel (hydroxypropylcellulose) (HPC), higher = larger tumour
  T/C: 102 % of control
endpoint: median tumor weight (est.), dose: 5.0 mg/kg/injection, schedule: Q01DX009 (ip), vehicle: saline with Tween-80, higher = larger tumour
  T/C: 97 % of control
endpoint: median tumor weight (est.), dose: 10.0 mg/kg/injection, schedule: Q01DX009 (ip), vehicle: Klucel (hydroxypropylcellulose) (HPC), higher = larger tumour
  T/C: 91 % of control
endpoint: median tumor weight (est.), dose: 10.0 mg/kg/injection, schedule: Q01DX009 (ip), vehicle: saline with Tween-80, higher = larger tumour
  T/C: 93 % of control
endpoint: median tumor weight (est.), dose: 20.0 mg/kg/injection, schedule: Q01DX009 (ip), vehicle: Klucel (hydroxypropylcellulose) (HPC), higher = larger tumour
  T/C: 73 % of control
endpoint: median tumor weight (est.), dose: 20.0 mg/kg/injection, schedule: Q01DX009 (ip), vehicle: saline with Tween-80, higher = larger tumour
  T/C: 53 % of control

## C1CC[N-]CC1.C1CC[N-]CC1.C1CC[N-]CC1.[Cl][Rh]([Cl])[Cl]
endpoint: median survival time, dose: 4.0 mg/kg/injection, schedule: Q01DX009 (ip), vehicle: saline, higher = longer survival
  T/C: 96 % of control
endpoint: median survival time, dose: 8.0 mg/kg/injection, schedule: Q01DX009 (ip), vehicle: saline, higher = longer survival
  T/C: 93 % of control
endpoint: median survival time, dose: 16.0 mg/kg/injection, schedule: Q01DX009 (ip), vehicle: saline, higher = longer survival
  T/C: 103 % of control
endpoint: median survival time, dose: 32.0 mg/kg/injection, schedule: Q01DX009 (ip), vehicle: saline, higher = longer survival
  T/C: 98 % of control
endpoint: median survival time, dose: 64.0 mg/kg/injection, schedule: Q01DX009 (ip), vehicle: saline, higher = longer survival
  T/C: 92 % of control

## CN(C)Cc1c[nH]c2ccccc12
endpoint: mean tumor weight, dose: 26.6 mg/kg/injection, schedule: Q01DX011 (ip), vehicle: carboxymethylcellulose (CMC), higher = larger tumour
  T/C: 94 % of control
endpoint: mean tumor weight, dose: 40.0 mg/kg/injection, schedule: Q01DX011 (ip), vehicle: carboxymethylcellulose (CMC), higher = larger tumour
  T/C: 70 % of control
endpoint: mean tumor weight, dose: 60.0 mg/kg/injection, schedule: Q01DX011 (ip), vehicle: carboxymethylcellulose (CMC), higher = larger tumour
  T/C: 62 % of control
endpoint: mean tumor weight, dose: 90.0 mg/kg/injection, schedule: Q01DX011 (ip), vehicle: carboxymethylcellulose (CMC), higher = larger tumour
  T/C: 57 % of control

## Clc1ccc(C(c2ccccc2Cl)C(Cl)Cl)cc1 (configuration not stated)
endpoint: mean tumor weight, dose: 62.5 mg/kg/injection, schedule: Q01DX011 (sc), vehicle: steriod suspending solution, higher = larger tumour
  T/C: 98 % of control
endpoint: mean tumor weight, dose: 125.0 mg/kg/injection, schedule: Q01DX011 (sc), vehicle: steriod suspending solution, higher = larger tumour
  T/C: 113 % of control
endpoint: mean tumor weight, dose: 250.0 mg/kg/injection, schedule: Q01DX011 (sc), vehicle: steriod suspending solution, higher = larger tumour
  T/C: 84 % of control
endpoint: mean tumor weight, dose: 500.0 mg/kg/injection, schedule: Q01DX011 (sc), vehicle: steriod suspending solution, higher = larger tumour
  T/C: 99 % of control

## CC(C)CCC[C@@H](C)[C@H]1CC[C@H]2[C@@H]3CC=C4C[C@@H](OC(=O)Cc5ccc(N(CCCl)CCCl)cc5)CC[C@]4(C)[C@H]3CC[C@]12C
endpoint: mean tumor weight, dose: 50.0 mg/kg/injection, schedule: Q01DX011 (sc), vehicle: steriod suspending solution, higher = larger tumour
  T/C: 84 % of control
endpoint: mean tumor weight, dose: 100.0 mg/kg/injection, schedule: Q01DX011 (sc), vehicle: steriod suspending solution, higher = larger tumour
  T/C: 76 % of control
endpoint: mean tumor weight, dose: 200.0 mg/kg/injection, schedule: Q01DX011 (sc), vehicle: steriod suspending solution, higher = larger tumour
  T/C: 78 % of control
endpoint: mean tumor weight, dose: 400.0 mg/kg/injection, schedule: Q01DX011 (sc), vehicle: steriod suspending solution, higher = larger tumour
  T/C: 57 % of control

## ClCCn1cnc2c(SCc3ccccc3Cl)ncnc21
endpoint: mean tumor weight, dose: 60.0 mg/kg/injection, schedule: Q01DX011 (ip), vehicle: other, higher = larger tumour
  T/C: 75 % of control
endpoint: mean tumor weight, dose: 120.0 mg/kg/injection, schedule: Q01DX011 (ip), vehicle: other, higher = larger tumour
  T/C: 58 % of control
endpoint: mean tumor weight, dose: 240.0 mg/kg/injection, schedule: Q01DX011 (ip), vehicle: other, higher = larger tumour
  T/C: 64 % of control

## c1ccc(CSc2ncnc3nc[nH]c23)nc1
endpoint: mean tumor weight, dose: 25.0 mg/kg/injection, schedule: Q01DX011 (ip), vehicle: other, higher = larger tumour
  T/C: 59 % of control
endpoint: mean tumor weight, dose: 50.0 mg/kg/injection, schedule: Q01DX011 (ip), vehicle: other, higher = larger tumour
  T/C: 109 % of control
endpoint: mean tumor weight, dose: 100.0 mg/kg/injection, schedule: Q01DX011 (ip), vehicle: other, higher = larger tumour
  T/C: 63 % of control

## CN(N=O)C(=O)NC1CCOCC1
endpoint: median survival time, dose: 475.0 mg/kg/injection, schedule: Q01DX001 (ip), vehicle: saline with Tween-80, higher = longer survival
  T/C: 108 % of control

## CC(=O)Oc1ccc(OC(C)=O)c2c1C(=O)C=CC2=O
endpoint: median survival time, dose: 0.38 mg/kg/injection, schedule: Q01DX009 (ip), vehicle: Klucel (hydroxypropylcellulose) (HPC), higher = longer survival
  T/C: 107 % of control
endpoint: median survival time, dose: 0.75 mg/kg/injection, schedule: Q01DX009 (ip), vehicle: Klucel (hydroxypropylcellulose) (HPC), higher = longer survival
  T/C: 96 % of control
endpoint: median survival time, dose: 1.5 mg/kg/injection, schedule: Q01DX009 (ip), vehicle: Klucel (hydroxypropylcellulose) (HPC), higher = longer survival
  T/C: 100 % of control
endpoint: median survival time, dose: 3.0 mg/kg/injection, schedule: Q01DX009 (ip), vehicle: Klucel (hydroxypropylcellulose) (HPC), higher = longer survival
  T/C: 113 % of control
endpoint: median survival time, dose: 3.12 mg/kg/injection, schedule: Q01DX009 (ip), vehicle: Klucel (hydroxypropylcellulose) (HPC), higher = longer survival
  T/C: 111 % of control
